# Biological target: Beta-3 Adrenergic Receptor (Homo sapiens (Human), UniProt P13945)
# Assay: HTRF cAMP antagonist assay (IC50 determination)
# Type: cell-based
# Details: CHO-K1 cells stably expressing recombinant receptor; antagonism of isoproterenol at EC90; cAMP readout
# Summary of the method: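 CHO-K1 cells stably expressing receptor, 1500 cells/well, preincubated briefly with 10-point 5-fold compound series (top final typically 10 or 100 μM) in PBS with 1 mM IBMX, then challenged with isoproterenol at EC90 for 1 h at room temperature. cAMP read by HTRF against on-plate standard curve; IC50 from dose-response.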
# Beta-3 Adrenergic Receptor, sequence (P13945 whole entry, species assumed): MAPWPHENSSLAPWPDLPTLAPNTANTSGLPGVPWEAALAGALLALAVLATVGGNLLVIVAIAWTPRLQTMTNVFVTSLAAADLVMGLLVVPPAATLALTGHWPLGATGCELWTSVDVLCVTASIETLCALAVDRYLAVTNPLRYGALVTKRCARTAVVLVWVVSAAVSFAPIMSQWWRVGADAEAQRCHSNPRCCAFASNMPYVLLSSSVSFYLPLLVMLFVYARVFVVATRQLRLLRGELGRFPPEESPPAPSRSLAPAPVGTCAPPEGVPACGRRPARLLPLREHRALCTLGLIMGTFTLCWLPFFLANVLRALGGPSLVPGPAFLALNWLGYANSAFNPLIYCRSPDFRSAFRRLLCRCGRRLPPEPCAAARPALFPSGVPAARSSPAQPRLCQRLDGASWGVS
row,Compound,IC50
1,"O=S(=O)(CCO)c1cccc(OC[C@@H](O)CN[C@H]2COC3(CCN(S(=O)(=O)c4ccc(-c5ccncc5)cc4)CC3)C2)c1 [Compound 101, (S)-1-(3-(2-hydroxyethylsulfonyl)phenoxy)-3-((R)-8-(4-(pyridin-4-yl)phenylsulfonyl)-1-oxa-8-azaspiro[4.5]decan-3-ylamino)propan-2-ol]",0.466 µM
2,"O=S(=O)(CCO)c1cccc(OC[C@@H](O)CN[C@H]2COC3(CCN(S(=O)(=O)c4ccc(-c5ccccn5)cc4)CC3)C2)c1 [Compound 102, (S)-1-(3-(2-hydroxyethylsulfonyl)phenoxy)-3-((R)-8-(4-(pyridin-2-yl)phenylsulfonyl)-1-oxa-8-azaspiro[4.5]decan-3-ylamino)propan-2-ol]",0.114 µM
3,"NCc1ccc(-c2ccc(S(=O)(=O)N3CCC4(CC3)C[C@@H](NC[C@H](O)COc3cccc(S(=O)(=O)CCO)c3)CO4)cc2)cc1 [Compound 103, (S)-1-((R)-8-(4′-(aminomethyl)biphenyl-4-ylsulfonyl)-1-oxa-8-azaspiro[4.5]decan-3-ylamino)-3-(3-(2-hydroxyethylsulfonyl)phenoxy)propan-2-ol]",1.2 µM
4,"CN1CCOc2ncc(S(=O)(=O)N3CCC4(CC3)C[C@@H](NC[C@H](O)COc3cccc(CS(C)(=O)=O)c3)CO4)cc21 [Compound 104, (S)-1-((R)-8-(1-methyl-2,3-dihydro-1H-pyrido[2,3-b][1,4]oxazin-7-ylsulfonyl)-1-oxa-8-azaspiro[4.5]decan-3-ylamino)-3-(3-(methylsulfonylmethyl)phenoxy)propan-2-ol]",0.0365 µM
5,"O=S(=O)(CCO)c1cccc(OC[C@@H](O)CN[C@H]2COC3(CCN(S(=O)(=O)c4cccc5cnccc45)CC3)C2)c1 [Compound 105, (S)-1-(3-(2-hydroxyethylsulfonyl)phenoxy)-3-((R)-8-(isoquinolin-5-ylsulfonyl)-1-oxa-8-azaspiro[4.5]decan-3-ylamino)propan-2-ol]",0.277 µM
6,"CC(C)(CO)S(=O)(=O)c1cccc(OC[C@@H](O)CN[C@H]2COC3(CCN(S(=O)(=O)c4cnc5ccccc5c4)CC3)C2)c1 [Compound 106, 2-(3-((S)-2-hydroxy-3-((R)-8-(quinolin-3-ylsulfonyl)-1-oxa-8-azaspiro[4.5]decan-3-ylamino)propoxy)phenylsulfonyl)-2-methylpropan-1-ol]",0.0362 µM
7,"O=S(=O)(c1cnc2ccccc2c1)N1CCC2(CC1)C[C@@H](NC[C@H](O)COc1cccc(S(=O)(=O)C3(CO)CCC3)c1)CO2 [Compound 107, (S)-1-(3-(1-(hydroxymethyl)cyclobutylsulfonyl)phenoxy)-3-((R)-8-(quinolin-3-ylsulfonyl)-1-oxa-8-azaspiro[4.5]decan-3-ylamino)propan-2-ol]",0.0257 µM
8,"CC(C)(C(N)=O)S(=O)(=O)c1cccc(OC[C@@H](O)CN[C@H]2COC3(CCN(S(=O)(=O)c4cnc5ccccc5c4)CC3)C2)c1 [Compound 108, 2-(3-((S)-2-hydroxy-3-((R)-8-(quinolin-3-ylsulfonyl)-1-oxa-8-azaspiro[4.5]decan-3-ylamino)propoxy)phenylsulfonyl)-2-methylpropanamide]",0.325 µM
9,"CC(C)(CO)S(=O)(=O)c1cccc(OC[C@@H](O)CN[C@H]2COC3(CCN(S(=O)(=O)c4ccc5ncccc5c4)CC3)C2)c1 [Compound 109, 2-(3-((S)-2-hydroxy-3-((R)-8-(quinolin-6-ylsulfonyl)-1-oxa-8-azaspiro[4.5]decan-3-ylamino)propoxy)phenylsulfonyl)-2-methylpropan-1-ol]",0.145 µM
10,"O=S(=O)(c1ccc2ncccc2c1)N1CCC2(CC1)C[C@@H](NC[C@H](O)COc1cccc(S(=O)(=O)C3(CO)CCC3)c1)CO2 [Compound 110, (S)-1-(3-(1-(hydroxymethyl)cyclobutylsulfonyl)phenoxy)-3-((R)-8-(quinolin-6-ylsulfonyl)-1-oxa-8-azaspiro[4.5]decan-3-ylamino)propan-2-ol]",0.0687 µM
